Experiments:
A549 = assay: Cell proliferation assay MTT, A549; settings: read-out: Cytotoxicity IC50 Lung A549, 72 hr treated
Description: (§1) Cells were seeded in 96-well plates at a density of 5×10^3 cells per well and allowed to attach for 24 h before compound treatment. […] At end of the treatment period 72 h, 20 μl (5 mg/mL) 3-(4,5-dimethylthiazol-2-yl)-2,5-diphenyl-tetrazolium bromide (MTT) reagent was added each well. After 4 h incubation at 37° C., the supernatant was aspirated and the formazan crystals were dissolved in 100 μl of DMSO at 37° C. for 10 min with gentle agitation. The absorbance was measured at 570 nm using the Molecular Devices Microplate Reader. […] IC50 values were calculated from the relative viability values and concentrations by regression analysis.

U87MG = assay: Cell proliferation assay MTT, U87MG; settings: read-out: Cytotoxicity IC50 Glioblastoma U87MG, 72 hr treated
Description: as §1

LNCap = assay: Cell proliferation assay MTT, LNCaP; settings: read-out: Cytotoxicity IC50 Prostate LNCap, 72 hr treated
Description: as §1

PANC1 = assay: Cell proliferation assay MTT, PANC1; settings: read-out: Cytotoxicity IC50 Pancreas PANC1, 72 hr treated
Description: as §1

HepG2 = assay: Cell proliferation assay MTT, HepG2; settings: read-out: Cytotoxicity IC50 Liver HepG2, 72 hr treated
Description: as §1

Vero = assay: Cell proliferation assay MTT, Vero normal cells; settings: read-out: Cytotoxicity IC50 Monkey normal Vero, 72 hr treated
Description: as §1

FHsWe = assay: Cell proliferation assay MTT, FHsWe normal cells; settings: read-out: Cytotoxicity IC50 Human normal FHsWe, 72 hr treated
Description: as §1

Structure (SMILES): CN1CCc2c(c3ccccc3n2Cc2ccc(C(=O)NO)cc2)C1 [Tubastatin A, reference compound]
- IC50 (A549): > 10 µM
- IC50 (U87MG): > 10 µM
- IC50 (LNCap): > 10 µM
- IC50 (PANC1): > 10 µM
- IC50 (HepG2): > 10 µM
- IC50 (Vero): 39.9 µM
- IC50 (FHsWe): 46.5 µM
